According to PubChem BioAssay (NCI):
Several values for one entry are separate records, joined by “and”; a condition that tells them apart may be missing. Identical values can stand only once.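 Each compound was tested at five concentrations against cells in 96-well plates for 48 hours. GI50: concentration for 50% inhibition of growth. The concentration for full growth arrest is given as TGI.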

Columns and labels:
Assay in all cases: NCI anticancer screen, dose series, 48 h
MALME-3M melanoma = test system: MALME-3M melanoma
MCF7 breast = test system: MCF7 breast
SN12C renal = test system: SN12C renal
EKVX NSCLC = test system: EKVX NSCLC
SNB-75 CNS = test system: SNB-75 CNS
TK-10 renal = test system: TK-10 renal
HCC-2998 colon = test system: HCC-2998 colon
PC-3 prostate = test system: PC-3 prostate
A549 NSCLC = test system: A549 NSCLC
OVCAR-4 ovarian = test system: OVCAR-4 ovarian

SMILES | GI50 (MALME-3M melanoma) | TGI (MALME-3M melanoma) | GI50 (MCF7 breast) | TGI (MCF7 breast) | GI50 (SN12C renal) | TGI (SN12C renal) | GI50 (EKVX NSCLC) | TGI (EKVX NSCLC) | GI50 (SNB-75 CNS) | TGI (SNB-75 CNS) | GI50 (TK-10 renal) | TGI (TK-10 renal) | GI50 (HCC-2998 colon) | TGI (HCC-2998 colon) | GI50 (PC-3 prostate) | TGI (PC-3 prostate) | GI50 (A549 NSCLC) | TGI (A549 NSCLC) | GI50 (OVCAR-4 ovarian) | TGI (OVCAR-4 ovarian)
COc1cc(/C=C2\C(=O)Nc3ccc(Br)cc32)cc(OC)c1OC | 0.606 µM | 16.8 µM | 2.64 µM | > 100 µM | > 93.8 µM | > 100 µM | 14.3 µM | > 100 µM | 4.01 µM | 14.5 µM | 4.65 µM | 30.1 µM | 57.4 µM | > 100 µM | 3.92 µM | > 100 µM | 10.3 µM | > 100 µM | > 29 µM | > 100 µM
CCn1c(-c2nonc2N)nc2c(C#CC(C)(C)O)ncc(OC[C@@H]3CCCN3)c21 | > 15.3 µM | > 25 µM | 1.71 µM | 9.73 µM | 5.26 µM | > 25 µM | 11.7 µM | > 25 µM | 0.942 µM | > 21.8 µM | 1.83 µM | > 21.8 µM | 3.12 µM | > 25 µM | 4.39 µM | > 25 µM | 6.96 µM | > 25 µM | 8.88 µM | > 25 µM
COc1ccc(-c2nn(-c3cccc(Cl)c3)cc2-c2cc(-c3cccs3)no2)cc1 | 2.6 µM | 10.6 µM | 3.53 µM | 16.9 µM | 3.48 µM | 18.7 µM | 2.07 µM | 13.5 µM | 3.52 µM | 34.7 µM | 5.21 µM | 43.8 µM | 3.47 µM | 14.6 µM | 3.2 µM | 36.9 µM | 3.56 µM | 24.5 µM | 4.48 µM | 36.4 µM
COc1ccc(CNC(=O)c2ccc(-c3cc(-c4nnc(C)o4)ccc3C)cc2)cc1 | 5.37 µM | > 25 µM | 9.86 µM | > 25 µM | > 25 µM | > 25 µM | 7.68 µM | > 25 µM | 14.2 µM | > 25 µM | > 25 µM | > 25 µM | > 25 µM | > 25 µM | 19.2 µM | > 25 µM | 22.8 µM | > 25 µM | 6.8 µM | > 25 µM
Cc1cc(C)c2nccc(NCCCN(C)C)c2c1[N+](=O)[O-] |  | 36.4 µM |  | > 100 µM |  | > 100 µM |  | > 100 µM |  | > 100 µM |  | > 100 µM |  | 51.1 µM |  | > 100 µM |  | > 100 µM |  | 30.2 µM
N=C(N)SCC(=O)O |  | > 100 µM |  | > 100 µM |  | > 100 µM |  | > 100 µM |  | > 100 µM |  | > 100 µM |  | > 100 µM |  | > 100 µM |  | > 100 µM |  | > 100 µM
CCCC(=O)Nc1cn(COC)c(C(=O)N2C[C@H]3C[C@@]34C2=CC(=O)c2[nH]cc(C)c24)n1 | 4.22 µM | 9.45 µM and 26 µM | 3.53 µM | 50 µM and > 100 µM | 5.55 µM | 42.9 µM and 71.2 µM | 39.1 µM | 39 µM and > 100 µM | 32 µM | 21.6 µM and > 100 µM |  | 46.2 µM | 1.89 µM | 9.14 µM and 6.59 µM |  | 50 µM and > 100 µM |  | 50 µM and > 100 µM |  | 30 µM and 36.5 µM
CC[C@H](C)[C@H](NC(=O)N[C@@H](C)c1ccccc1)C(=O)N(C)[C@H](C[C@@H](OC(C)=O)c1nc(C(=O)N[C@@H](Cc2ccccc2)C[C@H](C)C(=O)OC)cs1)C(C)C | > 100 µM | > 100 µM | 7.28 µM | > 100 µM | 48.8 µM | > 100 µM | 37.5 µM | > 100 µM | 13.8 µM | > 100 µM | 52 µM | > 100 µM | 28.8 µM | > 100 µM | 27.5 µM | > 100 µM | 67.3 µM | > 100 µM | 38.5 µM | > 100 µM
CC(=O)OC1Oc2cc(C)c(C)cc2-c2oc(=O)c(-c3ccccc3)cc21 (configuration not stated) | 0.407 µM | > 34.7 µM | 0.28 µM | 27.5 µM | 0.487 µM | > 100 µM | 0.685 µM | > 100 µM | 0.21 µM | 0.902 µM | 1.14 µM | > 44.9 µM | 0.971 µM | > 30.8 µM | 0.435 µM | > 100 µM | 0.608 µM | > 53.8 µM | 3.92 µM | > 100 µM
COc1cccc(C2CC(=O)Nc3cc4c(cc32)CCC4)c1OC (configuration not stated) | 5.98 µM | 36 µM | 3.22 µM | 18.4 µM | 5.4 µM | 34.8 µM |  |  | 2.31 µM | 11.9 µM | 12.4 µM | > 100 µM | 7.56 µM | 28.1 µM | 3.41 µM | 47.3 µM | 0.859 µM | > 33.8 µM | 12.3 µM | 98.2 µM
NCCNc1nc2ccccc2c2c(=O)c3cc(F)cc(Cl)c3sc12 | 1.83 µM | 3.35 µM | 1.52 µM | 3.13 µM | 1.65 µM | 3.17 µM | 1.6 µM | 3.13 µM | 1.27 µM | 2.56 µM |  |  | 1.75 µM | 3.45 µM | 1.42 µM | 2.9 µM | 1.79 µM | 3.72 µM | 1.7 µM | 3.41 µM
O=C(O)C(Cc1c[nH]c2ccccc12)N1C(=O)c2ccccc2C1=O (configuration not stated) |  | > 100 µM |  | > 100 µM |  | > 100 µM |  | > 100 µM |  | > 100 µM |  | > 100 µM |  | > 100 µM |  | > 100 µM |  | > 100 µM |  | > 100 µM
Cc1ccc(NCCNCC(O)CO)c2c(=O)c3ccccc3sc12 (configuration not stated) | 1.37 µM | 2.76 µM | 1.19 µM | 2.65 µM | 1.32 µM | 3.19 µM | 1.83 µM | 3.77 µM | 2.07 µM | 11.5 µM | 1.51 µM | 3.1 µM | 1.48 µM | 3.05 µM | 1.58 µM | 3.22 µM | 0.849 µM | 2.38 µM | 1.86 µM | 4.68 µM
O=C(/C(=N/Nc1cn[nH]c(=O)c1Cl)c1ccccc1)c1ccccc1 |  | > 100 µM |  | > 100 µM |  | > 100 µM |  | 83.1 µM |  | 71.6 µM |  | > 100 µM |  | 76.7 µM |  | > 100 µM |  | > 100 µM |  | > 100 µM
